The source of these data is patent US4126616A, “N-propylnorapomorphine diesters” (Hinshaw; William B., priority 1976, dated 1978).

This assay deals with caudate lesioned mouse. In words: caudate lesioned mouse test (anti-parkinson activity). Format: in vivo. The conditions noted are these: for responders at 208 µmol/kg: dose 0.208 m. mole/kg; for responders at 416 µmol/kg: dose 0.416 m. mole/kg; for ED50: caudate lesioned mouse; for Molar Potency Ratio Claimed/Ref. Ester: claimed N-propyl ester vs corresponding N-methyl reference ester; for responders at 132 µmol/kg: dose 0.132 m. mole/kg. On the procedure:
An index of anti-parkinson activity was determined using the caudate lesioned mouse test described by Lotti, Life Sci., 10, 781-789 (1971). The mice having unilateral lesions of the caudate nucleus prepared according to the method of Lotti supra were observed immediately after the surgical procedure for strong postural asymmetries directed to the same side as the lesion. When this asymmetry was not observed, the mice were discarded. Operated mice were allowed at least 14 days to recover prior to drug testing. The lesioned mice were tested with apomorphine using 1.7 mg./kg. of base administered intraperitoneally in a 1% suspension in gum tragacanth. […] Only those mice which twisted or circled toward the lesioned side in all three test periods after the apomorphine injection were retained for further drug testing. The test drugs were all administered in 1% gum tragacanth suspension in a volume of 0.1 ml./10 g. of body weight. Doses were expressed in mg./kg. of free base.
Results of tests in the caudate lesioned mouse test described above which were obtained on the compounds of the invention are given in the table below identified, in each case, by the example numbers above where their preparations are described. Corresponding data for reference apomorphine diesters described in German patent application No. 2,154,162 are given in a side-by-side relationship for a number of the species. The reference compounds, designated Ref. 1, Ref. 1B, Ref. 1C, Ref. 1D, Ref. 1E, Ref. 1F, Ref. 2 and Ref. 2A correspond, respectively, to the compounds of the invention identified by Examples 1, 1B, 1C, 1D, 1E, 1F, 2 and 2A and differ from the latter only in having a methyl group on the apomorphine nitrogen from instead of an n-propyl group as present in the instant compounds.

The mark [1] stands for this setting: Mus musculus, 0.5 h, 1/2 h post-drug, read-out: No. Mice Affected/No. Mice Tested, 1/2 h (converted).
Where [2] appears, read: Mus musculus, 1 h post-drug, read-out: No. Mice Affected/No. Mice Tested, 1 h.
Setting [3] is: Mus musculus, 4 h post-drug, read-out: No. Mice Affected/No. Mice Tested, 4 h (converted).
Setting [4] is: Mus musculus, 6 h post-drug, read-out: No. Mice Affected/No. Mice Tested, 6 h (converted).
Where [5] appears, read: Mus musculus, 24 h post-drug, read-out: No. Mice Affected/No. Mice Tested, 24 h (converted).
Setting [6] is: Mus musculus, total, read-out: No. Mice Affected/No. Mice Tested, Total (converted).
Setting [7] is: Mus musculus, 1 h post-drug, read-out: No. Mice Affected/No. Mice Tested, 1 h (converted).
The mark [8] stands for this setting: Mus musculus, 0.5 h, read-out: No. Mice Affected/No. Mice Tested, 1/2 h.
The mark [9] stands for this setting: Mus musculus, 1 h, read-out: No. Mice Affected/No. Mice Tested, 1 h.
[10] abbreviates: Mus musculus, 2 h, read-out: No. Mice Affected/No. Mice Tested, 2 h.
Setting [11] is: Mus musculus, 4 h, read-out: No. Mice Affected/No. Mice Tested, 4 h.
Where [12] appears, read: Mus musculus, 6 h, read-out: No. Mice Affected/No. Mice Tested, 6 h.
The mark [13] stands for this setting: Mus musculus, 24 h, read-out: No. Mice Affected/No. Mice Tested, 24 h.
Where [14] appears, read: Mus musculus, read-out: No. Mice Affected/No. Mice Tested, Total.

Where a name gives a salt, the structure may show the parent alone. Read-outs that look alike come from different tables or passages of the source.

`CN1CCc2cccc3c2C1Cc1ccc(OC(=O)C(C)(C)C)c(OC(=O)C(C)(C)C)c1-3` (centres unmarked) [Ref. 1C, reference compound]: the responders at 208 µmol/kg is 0% under setting [1]; 0% under setting [2]; 0% under setting [3]; 0% under setting [4]; 0% under setting [5]; 0% under setting [6]. For the same compound, the responders at 416 µmol/kg runs as follows: under setting [1], 0%; under setting [7], 33.3%; under setting [3], 66.7%; under setting [4], 66.7%; (Mus musculus, 24 h post-drug, read-out: No. Mice Affected/No. Mice Tested, 24 h) 0%; under setting [6], 66.7%.

On to `CCCN1CCc2cccc3c2C1Cc1ccc(OC(=O)c2cc(OC)c(OC)c(OC)c2)c(OC(=O)c2cc(OC)c(OC)c(OC)c2)c1-3` (centres unmarked) [Ex. 1L, N-Propylnorapomorphine bis-3,4,5-trimethoxybenzoate hydrochloride], for which, under “read-out: ED50”, the ED50 worked out at 15 µmol/kg. Besides, the responders at 5.2 µmol/kg by setting is: (Mus musculus, 0.5 h, dose 0.0052 m. mole/kg, 1/2 h post-drug, read-out: No. Mice Affected/No. Mice Tested, 1/2 h) 0%; (Mus musculus, dose 0.0052 m. mole/kg, 1 h post-drug, read-out: No. Mice Affected/No. Mice Tested, 1 h) 0%; (Mus musculus, dose 0.0052 m. mole/kg, 2 h post-drug, read-out: No. Mice Affected/No. Mice Tested, 2 h) 0%; (Mus musculus, dose 0.0052 m. mole/kg, 4 h post-drug, read-out: No. Mice Affected/No. Mice Tested, 4 h) 0%; (Mus musculus, dose 0.0052 m. mole/kg, 6 h post-drug, read-out: No. Mice Affected/No. Mice Tested, 6 h) 0%; (Mus musculus, dose 0.0052 m. mole/kg, 24 h post-drug, read-out: No. Mice Affected/No. Mice Tested, 24 h) 0%. Moreover, the responders at 5.2 µmol/kg (Mus musculus, dose 0.0052 m. mole/kg, total, read-out: No. Mice Affected/No. Mice Tested, Total) turned out to be 0%. The responders at 26 µmol/kg by setting is: (Mus musculus, 0.5 h, dose 0.026 m. mole/kg, 1/2 h post-drug, read-out: No. Mice Affected/No. Mice Tested, 1/2 h (converted)) 75%; (Mus musculus, dose 0.026 m. mole/kg, 1 h post-drug, read-out: No. Mice Affected/No. Mice Tested, 1 h (converted)) 75%; (Mus musculus, dose 0.026 m. mole/kg, 2 h post-drug, read-out: No. Mice Affected/No. Mice Tested, 2 h (converted)) 100%; (Mus musculus, dose 0.026 m. mole/kg, 4 h post-drug, read-out: No. Mice Affected/No. Mice Tested, 4 h (converted)) 100%; (Mus musculus, dose 0.026 m. mole/kg, 6 h post-drug, read-out: No. Mice Affected/No. Mice Tested, 6 h (converted)) 100%; (Mus musculus, dose 0.026 m. mole/kg, 24 h post-drug, read-out: No. Mice Affected/No. Mice Tested, 24 h) 0%. Besides, the responders at 26 µmol/kg (Mus musculus, dose 0.026 m. mole/kg, total, read-out: No. Mice Affected/No. Mice Tested, Total (converted)) was 100%.

On to `CCCN1CCc2cccc3c2C1Cc1ccc(OC(=O)CC)c(OC(=O)CC)c1-3` (centres unmarked) [Ex. 1 (Base), N-propylnorapomorphine dipropionate], for which the “Molar Potency Ratio Claimed/Ref. Ester” value stood at 10. Further, under setting [8], the responders at 5.2 µmol/kg amounted to 0%, the responders at 13 µmol/kg is 75% and the responders at 26 µmol/kg is 100%. Under setting [9], the responders at 5.2 µmol/kg was found to be 0%, the responders at 13 µmol/kg was 75% and the responders at 26 µmol/kg is 100%. Also, under setting [10], the responders at 5.2 µmol/kg was found to be 0%, the responders at 13 µmol/kg is 75% and the responders at 26 µmol/kg is 75%. Under setting [11], the responders at 5.2 µmol/kg was 0%, the responders at 13 µmol/kg was 75% and the responders at 26 µmol/kg was 75%. For the same compound, under setting [12], the responders at 5.2 µmol/kg is 0%, the responders at 13 µmol/kg is 50% and the responders at 26 µmol/kg was 25%. Under setting [13], the responders at 5.2 µmol/kg stood at 0%, the responders at 13 µmol/kg was 0% and the responders at 26 µmol/kg stood at 0%. The compound also gave an ED50 (Mus musculus) of 10 µmol/kg. In addition, under setting [14], the responders at 5.2 µmol/kg amounted to 0%, the responders at 13 µmol/kg is 75% and the responders at 26 µmol/kg is 100%.

As to `CCCN1CCc2cccc3c2C1Cc1ccc(OC(=O)c2ccc(Cl)cc2)c(OC(=O)c2ccc(Cl)cc2)c1-3` (centres unmarked) [Ex. 1F, N-Propylnorapomorphine bis-4-chlorobenzoate], the “Molar Potency Ratio Claimed/Ref. Ester” value is reported as not below 3. Also, under setting [1], the responders at 132 µmol/kg is 0% and the responders at 208 µmol/kg is 33.3%. The responders at 132 µmol/kg under setting [7] was 25%. Under setting [3], the responders at 132 µmol/kg was 0% and the responders at 208 µmol/kg is 66.7%. For the same compound, under setting [4], the responders at 132 µmol/kg was 25% and the responders at 208 µmol/kg is 100%. Besides, under setting [5], the responders at 132 µmol/kg is 0% and the responders at 208 µmol/kg was 33.3%. Also, under setting [6], the responders at 132 µmol/kg is 25% and the responders at 208 µmol/kg was 100%. Also, the responders at 208 µmol/kg under setting [2] turned out to be 0%.

Take `CCCN1CCc2cccc3c2C1Cc1ccc(OC(=O)CC)c(OC(=O)CC)c1-3` (centres unmarked) [Ex. 1 (HCl), N-propylnorapomorphine dipropionate]: the ED50 is 0.0094 m. mole/kg and the “Molar Potency Ratio Claimed/Ref. Ester” value is 10. Under setting [8], the responders at 6.5 µmol/kg was 25%, the responders at 130 µmol/kg was 75% and the responders at 260 µmol/kg is 100%. Further, under setting [9], the responders at 6.5 µmol/kg is 25%, the responders at 130 µmol/kg was 50% and the responders at 260 µmol/kg is 100%. Also, under setting [10], the responders at 6.5 µmol/kg was found to be 0%, the responders at 130 µmol/kg was 0% and the responders at 260 µmol/kg was 100%. In addition, under setting [11], the responders at 6.5 µmol/kg amounted to 0%, the responders at 130 µmol/kg came to 0% and the responders at 260 µmol/kg was 100%. Moreover, under setting [12], the responders at 6.5 µmol/kg is 0%, the responders at 130 µmol/kg stood at 0% and the responders at 260 µmol/kg is 100%. In addition, under setting [14], the responders at 6.5 µmol/kg is 25%, the responders at 130 µmol/kg was 75% and the responders at 260 µmol/kg was 100%.
